Test system: experimentally-infarcted rats
Assay: Infarct scar area and transmurality after coronary occlusion and reperfusion in rats
Assay type: in vivo, Sprague Dawley rats
Conditions: for Transmurality, Treated: infarct scar area divided by infarct area; for Transmurality, Treated / Infarct Scar Area, Treated: mean ± SEM, 7 rats; for Infarct Scar Area, Treated: left ventricle
Description: The experimental protocol for induction of cardiac infarction by coronary occlusion and reperfusion in rats was carried out as described by Oh et al. (10). Briefly, each rat was anaesthetized with 7% w/v chloral hydrate (0.4 g/kg, i.p.). Each anaesthetised animal was intubated and ventilated with a rodent ventilator. Under a dissecting microscope, a left thoracotomy was performed in the fourth intercostal space, and the pericardium open. The left coronary artery was encircled with a curved needle and a silk suture. The left coronary artery was ligated for 45 minutes, followed by reperfusion. In sham-operated animals, the left coronary artery was not ligated. The chest was closed in layers and the pneumothorax evacuated.
Following the surgery, each animal was placed in a cage. The animals had access to water and rat chow ad libitum. The animals were randomly divided into the control group and treatment group. Each group consisted of 7 animals. The treatment group was orally administered 381 nmoles/kg/day of des-Asp-angiotensin I (dissolved in 1 ml water) for 14 days. The control group was similarly administered an equivalent volume of water. The experiment was repeated with the following doses of des-Asp-angiotensin I: 762, 1524, and […] nmoles/kg/day.
On the fourteenth day following surgery, animals were anaesthetised as before. Rats were ventilated as before and the thorax was opened. A polyethylene catheter (PE 200) was introduced into the left ventricle (via the left atrial appendage) and another into the descending aorta retrogradely. The heart was arrested with 2 ml injection of saturated KCl solution into the right atrium. After aortic perfusion with heparinized saline (10,000 units/L) for 3 minutes to wash out the blood, the myocardium was perfused retrogradely from the aorta with 4% phosphate-buffered paraformaldehyde at a constant pressure of 60 mm Hg for 20 minutes. The right atrium and pulmonary artery were opened to decompress the right ventricle during fixation. The left ventricle intracavity pressure was maintained at 10 mm Hg by use of the cathether introduced via the left atrial appendage.
After hardening, the heart was excised and postfixed in 4% paraformaldehyde for 24 hours. Following postfixing, the atria and adhensions were carefully dissected away and the right and left ventricles were separated, the interventricular septum being included with the left ventricle. The left ventricle was processed for paraffin embedment. Transverse serial sections of 40 μm thick were cut from the apex of the ventricle to its base. Every section at 1 mm intervals was mounted and stained with Milligan's trichrome. The infracted tissue (infarct scar) was stained blue. Two sections, taken at 5 and 6 mm, respectively, from the apex of each ventricle were used for morphometric determination of the infarct scar area and transmurality. The morphometry system consisted of a BX40 light microscope (Olympus, Japan) fitted with a KYF55B colour video camera (JVC, Japan) and a Pentium 166 MHz/MKX microcomputer (Datamini, Singapore) installed with an image Pro Plus 3.0 System (Media Cybernetics, USA) for Windows 95™. The infarct scar area, infarct area (which measured the scar and the surrounding surviving ventricular tissue) were determined in mm2. Transmurality is equal to the infarct scar area divided by infarct area.
The results of the study are summarized in Table 2 Data were expressed as mean±SEM. Significant differences were determined by one way ANOVA and post hoc Newman Kleuf test. The accepted level of significance was p<0.05. […] The effect was dose dependent and significant anti-infarction action was brought about by an oral dose of 1524 nmoles/kg/day.

[1] = 381 nmole/kg/day orally for 14 days
[2] = 762 nmole/kg/day orally for 14 days
[3] = 1524 nmole/kg/day orally for 14 days, * p < 0.05 vs Control
[4] = 3096 nmole/kg/day orally for 14 days, * p < 0.05 vs Control

**Q.** Which results are given for “Des-Aspartate angiotensin I [des-Asp-angiotensin I]”?
**A.** Transmurality, Treated [1]: 32.93 ± 1.94%; Infarct Scar Area, Treated [1]: 5.85 ± 0.25 mm^2; Transmurality, Treated [2]: 33.70 ± 3.40%; Infarct Scar Area, Treated [2]: 5.60 ± 0.30 mm^2; Transmurality, Treated [3]: 24.67 ± 2.37* %; Infarct Scar Area, Treated [3]: 5.11 ± 0.54* mm^2; Transmurality, Treated [4]: 31.26 ± 1.53* %; Infarct Scar Area, Treated [4]: 5.86 ± 0.20* mm^2; attenuating the infarct size area and transmurality (experimentally-induced myocardial infarcted rats, oral, 14 days): effective agent; oral dose that brought about significant anti-infarction action (oral, 14 days, p<0.05, one way ANOVA): 1524 nmol/kg/day

Source: US6589938B2, “Use of angiotensin I derivatives as an agent for the treatment and prevention of infarction-related cardiac injuries and disorders” (National University of Singapore, priority 2001, dated 2003)
